# Biological target: T1, Recombinant human GR (Homo sapiens, UniProt P04150)
# T1 construct: purchased Invitrogen P2816
# T1 sequence (P04150 1-777): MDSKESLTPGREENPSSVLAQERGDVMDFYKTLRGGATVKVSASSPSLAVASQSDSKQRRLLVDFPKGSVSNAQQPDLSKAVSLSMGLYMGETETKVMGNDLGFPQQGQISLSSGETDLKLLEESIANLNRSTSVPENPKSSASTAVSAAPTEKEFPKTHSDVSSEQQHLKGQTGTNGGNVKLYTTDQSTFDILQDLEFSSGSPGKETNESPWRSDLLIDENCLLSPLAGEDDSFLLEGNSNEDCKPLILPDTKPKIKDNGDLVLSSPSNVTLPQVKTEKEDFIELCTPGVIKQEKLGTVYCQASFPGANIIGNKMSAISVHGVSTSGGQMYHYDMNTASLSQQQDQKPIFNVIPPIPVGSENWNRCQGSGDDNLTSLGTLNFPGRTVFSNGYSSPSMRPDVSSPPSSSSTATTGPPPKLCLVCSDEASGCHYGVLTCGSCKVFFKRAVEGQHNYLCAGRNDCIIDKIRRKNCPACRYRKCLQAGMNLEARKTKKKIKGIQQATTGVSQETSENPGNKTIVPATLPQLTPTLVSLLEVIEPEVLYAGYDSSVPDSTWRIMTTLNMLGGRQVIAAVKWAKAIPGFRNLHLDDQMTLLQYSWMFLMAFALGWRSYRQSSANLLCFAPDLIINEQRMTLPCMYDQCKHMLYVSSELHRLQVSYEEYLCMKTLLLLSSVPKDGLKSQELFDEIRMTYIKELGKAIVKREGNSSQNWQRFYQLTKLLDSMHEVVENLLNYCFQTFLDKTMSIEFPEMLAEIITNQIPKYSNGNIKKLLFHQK
# Assay: GR competitor assay by fluorescence polarization (GR binding ratio)
# Conditions: positive control 2 mM dexamethasone, a GR binding ratio of 100% or more is indicated by 100%
# Experimental: 1. Evaluation Test for Binding Activity to Glucocorticoid Receptor (hereinafter referred to as “GR”)
# In order to evaluate a binding activity to GR, a receptor competitor assay was carried out by a fluorescence polarization method. In the assay, a GR competitor assay kit (manufactured by Invitrogen, cat No. P2816) was used, and a procedure was carried out according to the protocol attached to the kit. Hereinafter, the specific method will be described.
# GR screening buffer: A buffer containing 10 mM potassium phosphate (pH 7.4), 20 mM sodium molybdate (Na2MoO4), 0.1 mM ethylene diamine tetraacetic acid (EDTA), 5 mM dithiothreitol (DTT), 0.1 mM stabilizing peptide and 2% dimethylsulfoxide was prepared.
# 4×GS1 solution: Fluormone™ GS1, which is a fluorescent glucocorticoid ligand, was diluted with GR screening buffer, whereby a 4 nM solution was prepared.
# 4×GR solution: Recombinant human GR was diluted with GR screening buffer, whereby a 16 nM solution was prepared.
# After a test compound was dissolved in dimethylsulfoxide, the resulting solution was diluted with GR screening buffer, whereby a 20 μM test compound solution was prepared.
# 1) The test compound solution was added in an amount of 25 μL or 10 μL into each well of a 96-well or 384-well plate, and then, 4×GS1 solution and 4×GR solution were added in an amount of 12.5 μL or 5 μL into each well, respectively.
# 2) The plate was incubated in a dark place at room temperature for 2 to 4 hours.
# 3) By using a multimode plate reader, Analyst™ HT (manufactured by LJL Biosystems), fluorescence polarization of each well was measured. As the blank, a well containing GR screening buffer in place of the test compound and 4×GS1 solution was used.
# 4) The same procedure as that in the above 1) to 3) was carried out except that GR screening buffer was used in place of the test compound solution, and the obtained result was taken as the negative control.
# 5) The same procedure as that in the above 1) to 3) was carried out except that 2 mM dexamethasone was used in place of the test compound solution, and the obtained result was taken as the positive control.
# A GR binding ratio (%) was calculated from the following equation.
# GR binding ratio (%)=100×[1−(fluorescence polarization of test compound solution−fluorescence polarization of positive control solution)/(fluorescence polarization of negative control solution−fluorescence polarization of positive control solution)]
row,Compound,GR Binding ratio (%)
1,"COc1cc(O)ccc1-c1ccc2c(c1COc1cc(F)ccc1C)C(C)=CC(C)(C)N2 [Compound 5-3, 5-(5-Fluoro-2-methylphenoxymethyl)-6-(4-hydroxy-2-methoxyphenyl)-2,2,4-trimethyl-1,2-dihydroquinoline]",≥ 100%
2,"COc1ccc(O)cc1-c1ccc2c(c1COc1cc(F)ccc1C)C(C)=CC(C)(C)N2 [Compound 5-4, 5-(5-Fluoro-2-methylphenoxymethyl)-6-(5-hydroxy-2-methoxyphenyl)-2,2,4-trimethyl-1,2-dihydroquinoline]",95%
3,"COc1ccccc1NCc1c(-c2ccc(F)cc2OC)ccc2c1C(C)=CC(C)(C)N2 [Compound 6-20, 6-(4-Fluoro-2-methoxyphenyl)-5-(2-methoxyphenylaminomethyl)-2,2,4-trimethyl-1,2-dihydroquinoline]",≥ 100%
4,"CCOc1ccccc1NCc1c(-c2ccc(F)cc2OC)ccc2c1C(C)=CC(C)(C)N2 [Compound 6-24, 5-(2-Ethoxyphenylaminomethyl)-6-(4-fluoro-2-methoxyphenyl)-2,2,4-trimethyl-1,2-dihydroquinoline]",≥ 100%
5,"COc1ccccc1NCc1c(-c2cc(F)c(F)cc2OC)ccc2c1C(C)=CC(C)(C)N2 [Compound 6-27, 6-(4,5-Difluoro-2-methoxyphenyl)-5-(2-methoxyphenylaminomethyl)-2,2,4-trimethyl-1,2-dihydroquinoline]",≥ 100%
6,"COc1cc(F)ccc1-c1ccc2c(c1CNc1cccc(C)c1)C(C)=CC(C)(C)N2 [Compound 6-36, 6-(4-Fluoro-2-methoxyphenyl)-5-(3-methylphenylaminomethyl)-2,2,4-trimethyl-1,2-dihydroquinoline]",98%
7,"COc1cc(F)ccc1-c1ccc2c(c1CNc1ccccc1C)C(C)=CC(C)(C)N2 [Compound 6-37, 6-(4-Fluoro-2-methoxyphenyl)-5-(2-methylphenylaminomethyl)-2,2,4-trimethyl-1,2-dihydroquinoline]",≥ 100%
8,"CCc1cccc(NCc2c(-c3ccc(F)cc3OC)ccc3c2C(C)=CC(C)(C)N3)c1 [Compound 6-40, 5-(3-Ethylphenylaminomethyl)-6-(4-fluoro-2-methoxyphenyl)-2,2,4-trimethyl-1,2-dihydroquinoline]",99%
9,"COc1ccc(C)cc1NCc1c(-c2ccc(F)cc2OC)ccc2c1C(C)=CC(C)(C)N2 [Compound 6-43, 6-(4-Fluoro-2-methoxyphenyl)-5-(2-methoxy-5-methylphenylaminomethyl)-2,2,4-trimethyl-1,2-dihydroquinoline]",≥ 100%
10,"CCc1ccccc1NCc1c(-c2ccc(F)cc2OC)ccc2c1C(C)=CC(C)(C)N2 [Compound 6-45, 5-(2-Ethylphenylaminomethyl)-6-(4-fluoro-2-methoxyphenyl)-2,2,4-trimethyl-1,2-dihydroquinoline]",96%
11,"COc1cc(F)ccc1-c1ccc2c(c1CNc1ccccc1C(C)C)C(C)=CC(C)(C)N2 [Compound 6-47, 6-(4-Fluoro-2-methoxyphenyl)-5-(2-isopropylphenylaminomethyl)-2,2,4-trimethyl-1,2-dihydroquinoline]",≥ 100%
12,"COc1cc(F)ccc1-c1ccc2c(c1CNc1cc(C)ccc1C)C(C)=CC(C)(C)N2 [Compound 6-53, 5-(2,5-Dimethylphenylaminomethyl)-6-(4-fluoro-2-methoxyphenyl)-2,2,4-trimethyl-1,2-dihydroquinoline]",95%
13,"COc1cc(F)ccc1-c1ccc2c(c1CNc1cc(F)ccc1C)C(C)=CC(C)(C)N2 [Compound 6-57, 6-(4-Fluoro-2-methoxyphenyl)-5-(5-fluoro-2-methylphenylaminomethyl)-2,2,4-trimethyl-1,2-dihydroquinoline]",≥ 100%
14,"COc1cc(F)c(F)cc1-c1ccc2c(c1CNc1ccccc1C)C(C)=CC(C)(C)N2 [Compound 6-59, 6-(4,5-Difluoro-2-methoxyphenyl)-5-(2-methylphenylaminomethyl)-2,2,4-trimethyl-1,2-dihydroquinoline]",96%
15,"COc1ccccc1NCc1c(-c2cc(F)ccc2OC)ccc2c1C(C)=CC(C)(C)N2 [Compound 6-75, 6-(5-Fluoro-2-methoxyphenyl)-5-(2-methoxyphenylaminomethyl)-2,2,4-trimethyl-1,2-dihydroquinoline]",≥ 100%
16,"COc1ccccc1NCc1c(-c2cc(C)ccc2OC)ccc2c1C(C)=CC(C)(C)N2 [Compound 6-76, 6-(2-Methoxy-5-methylphenyl)-5-(2-methoxyphenylaminomethyl)-2,2,4-trimethyl-1,2-dihydroquinoline]",≥ 100%

# Now from value to molecule:
row,GR Binding ratio (%),Compound
1,≥ 100%,"COc1cc(F)ccc1-c1ccc2c(c1CNc1ccccc1CCO)C(C)=CC(C)(C)N2 [Compound 6-77, 6-(4-Fluoro-2-methoxyphenyl)-5-[2-(2-hydroxyethyl)phenylaminomethyl)-2,2,4-trimethyl-1,2-dihydroquinoline]"
2,≥ 100%,"COc1ccc(F)cc1-c1ccc2c(c1CNc1cc(F)ccc1C)C(C)=CC(C)(C)N2 [Compound 6-78, 6-(5-Fluoro-2-methoxyphenyl)-5-(5-fluoro-2-methylphenylaminomethyl)-2,2,4-trimethyl-1,2-dihydroquinoline]"
3,≥ 100%,"COc1ccc(C(F)(F)F)cc1-c1ccc2c(c1CNc1cc(F)ccc1C)C(C)=CC(C)(C)N2 [Compound 6-79, 5-(5-Fluoro-2-methylphenylaminomethyl)-6-(2-methoxy-5-trifluoromethylphenyl)-2,2,4-trimethyl-1,2-dihydroquinoline]"
4,≥ 100%,"COc1cc(F)ccc1-c1ccc2c(c1COC(=O)c1sccc1Cl)C(C)=CC(C)(C)N2 [Compound 12-17, 5-[(3-Chlorothiophen-2-yl)carbonyloxymethyl]-6-(4-fluoro-2-methoxyphenyl)-2,2,4-trimethyl-1,2-dihydroquinoline]"
5,≥ 100%,"COc1cc(F)ccc1-c1ccc2c(c1COC(=O)c1ccc(C)s1)C(C)=CC(C)(C)N2 [Compound 12-19, 6-(4-Fluoro-2-methoxyphenyl)-5-[(5-methylthiophen-2-yl)carbonyloxymethyl]-2,2,4-trimethyl-1,2-dihydroquinoline]"
6,≥ 100%,"CCc1ccc(C(=O)OCc2c(-c3ccc(F)cc3OC)ccc3c2C(C)=CC(C)(C)N3)s1 [Compound 12-20, 5-[(5-Ethylthiophen-2-yl)carbonyloxymethyl]-6-(4-fluoro-2-methoxyphenyl)-2,2,4-trimethyl-1,2-dihydroquinoline]"
7,≥ 100%,"COc1cc(F)ccc1-c1ccc2c(c1COC(=O)c1cc(C)cs1)C(C)=CC(C)(C)N2 [Compound 12-21, 6-(4-Fluoro-2-methoxyphenyl)-5-[(4-methylthiophen-2-yl)carbonyloxymethyl]-2,2,4-trimethyl-1,2-dihydroquinoline]"
8,≥ 100%,"COc1cc(F)ccc1-c1ccc2c(c1COC(=O)c1ccc(Cl)s1)C(C)=CC(C)(C)N2 [Compound 12-22, 5-[(5-Chlorothiophen-2-yl)carbonyloxymethyl]-6-(4-fluoro-2-methoxyphenyl)-2,2,4-trimethyl-1,2-dihydroquinoline]"
9,≥ 100%,"COc1cc(F)ccc1-c1ccc2c(c1COC(=O)c1ccc(Br)s1)C(C)=CC(C)(C)N2 [Compound 12-25, 5-[(5-Bromothiophen-2-yl)carbonyloxymethyl]-6-(4-fluoro-2-methoxyphenyl)-2,2,4-trimethyl-1,2-dihydroquinoline]"

# From patent US8017775B2, “1-2-dihydroquinoline derivative having glucocorticoid receptor binding activity” (Santen Pharmaceutical Co., Ltd., priority 2005, dated 2011)
